Values joined by “and” are separate entries in the source; they are usually repeats but may differ in a detail not shown here. Equal entries are not always repeated.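 The compound was tested at five concentrations on cells cultured in 96-well plates, with a 48-hour exposure period. Here, GI50 denotes the concentration required for 50% inhibition of growth. The concentration for full growth arrest is given as TGI.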
Tests used:
Assay in all cases: NCI-60 cell line screen, 48 h
786-0 renal = system: 786-0 renal
A498 renal = system: A498 renal
A549 NSCLC = system: A549 NSCLC
ACHN renal = system: ACHN renal
BT-549 breast = system: BT-549 breast
CAKI-1 renal = system: CAKI-1 renal
CCRF-CEM leukemia = system: CCRF-CEM leukemia
COLO 205 colon = system: COLO 205 colon
DU-145 prostate = system: DU-145 prostate
EKVX NSCLC = system: EKVX NSCLC
HCC-2998 colon = system: HCC-2998 colon
HCT-116 colon = system: HCT-116 colon
HCT-15 colon = system: HCT-15 colon
HL-60(TB) leukemia = system: HL-60(TB) leukemia
HOP-62 NSCLC = system: HOP-62 NSCLC
HOP-92 NSCLC = system: HOP-92 NSCLC
HS 578T breast = system: HS 578T breast
HT29 colon = system: HT29 colon
IGROV1 ovarian = system: IGROV1 ovarian
K-562 leukemia = system: K-562 leukemia
KM12 colon = system: KM12 colon
LOX IMVI melanoma = system: LOX IMVI melanoma
M14 melanoma = system: M14 melanoma
MALME-3M melanoma = system: MALME-3M melanoma
MCF7 breast = system: MCF7 breast
MDA-MB-231 breast = system: MDA-MB-231 breast
MDA-MB-435 = system: MDA-MB-435
MOLT-4 leukemia = system: MOLT-4 leukemia
NCI-H226 lung = system: NCI-H226 lung

COc1ccc(F)c(F)c1C(=O)c1cnc(NC2CCN(S(C)(=O)=O)CC2)nc1N
GI50 (786-0 renal): 666 nM and 388 nM
TGI (786-0 renal): > 27000 nM
GI50 (A498 renal): 445 nM
TGI (A498 renal): 2080 nM
GI50 (A549 NSCLC): 422 nM and 397 nM
TGI (A549 NSCLC): > 26500 nM
GI50 (ACHN renal): 439 nM and 272 nM
TGI (ACHN renal): > 100000 nM
GI50 (BT-549 breast): 1520 nM and 1020 nM
TGI (BT-549 breast): 5860 nM and 5520 nM
GI50 (CAKI-1 renal): 1050 nM and 232 nM
TGI (CAKI-1 renal): > 100000 nM
GI50 (CCRF-CEM leukemia): 431 nM and 237 nM
TGI (CCRF-CEM leukemia): > 8340 nM
GI50 (COLO 205 colon): 253 nM and 150 nM
TGI (COLO 205 colon): 1690 nM and 1480 nM
GI50 (DU-145 prostate): 1700 nM and 623 nM
TGI (DU-145 prostate): > 71200 nM
GI50 (EKVX NSCLC): 923 nM
TGI (EKVX NSCLC): 7730 nM
GI50 (HCC-2998 colon): 961 nM and 987 nM
TGI (HCC-2998 colon): > 26800 nM and 5650 nM
GI50 (HCT-116 colon): 257 nM and 183 nM
TGI (HCT-116 colon): > 100000 nM
GI50 (HCT-15 colon): 484 nM and 361 nM
TGI (HCT-15 colon): > 100000 nM
GI50 (HL-60(TB) leukemia): 67.2 nM
TGI (HL-60(TB) leukemia): 4610 nM
GI50 (HOP-62 NSCLC): 959 nM and 450 nM
TGI (HOP-62 NSCLC): > 23400 nM and 7930 nM
GI50 (HOP-92 NSCLC): 250 nM and 430 nM
TGI (HOP-92 NSCLC): 3460 nM and 5530 nM
GI50 (HS 578T breast): 1520 nM and 695 nM
TGI (HS 578T breast): 6120 nM and > 8400 nM
GI50 (HT29 colon): 420 nM and 341 nM
TGI (HT29 colon): 7680 nM and > 9060 nM
GI50 (IGROV1 ovarian): 1060 nM and 387 nM
TGI (IGROV1 ovarian): > 100000 nM
GI50 (K-562 leukemia): 2050 nM and 1950 nM
TGI (K-562 leukemia): > 100000 nM
GI50 (KM12 colon): 402 nM and 306 nM
TGI (KM12 colon): > 29800 nM
GI50 (LOX IMVI melanoma): 848 nM and 291 nM
TGI (LOX IMVI melanoma): > 100000 nM
GI50 (M14 melanoma): 1480 nM and 917 nM
TGI (M14 melanoma): 9660 nM and > 10000 nM
GI50 (MALME-3M melanoma): 1040 nM and 1490 nM
TGI (MALME-3M melanoma): 4790 nM and 5380 nM
GI50 (MCF7 breast): 67.4 nM and 45.8 nM
TGI (MCF7 breast): > 100000 nM
GI50 (MDA-MB-231 breast): 805 nM and 262 nM
GI50 (MDA-MB-435): 419 nM and 309 nM
TGI (MDA-MB-435): 3720 nM and > 4890 nM
GI50 (MOLT-4 leukemia): 390 nM and 321 nM
TGI (MOLT-4 leukemia): > 100000 nM
GI50 (NCI-H226 lung): 1280 nM and 408 nM
TGI (NCI-H226 lung): > 24400 nM

From PubChem BioAssay (NCI)
